Data reported in US10526280B2 (University of Pittsburgh—Of the Commonwealth System of …, priority 2014, dated 2020).
Like-named read-outs stand apart in the source and are kept apart here.

Assays:
KCNQ2/3 channels = target: T1, KCNQ2/3 channels (Homo sapiens, UniProt O43525+O43526); test: KCNQ2/3 currents, voltage clamp of CHO cells transiently expressing heterologous KCNQ2/3 channels; format: cell-based
T1 construct: expressed in transfected cells; host or cells: CHO cells, transient expression
Description: Retigabine and SF0034 at KCNQ2/3 channels. […] CHO cells transiently expressing heterologous KCNQ2/3 channels were clamped at −85 mV and KCNQ2/3 currents were measured elicited by 1 s depolarization step from −105 to +15 mV in the increment of 10 mV followed by return step to −70 mV. […] Representative current traces of KCNQ2/3 currents at increasing membrane potentials in absence and presence of 100 nM retigabine (A) and 100 nM SF0034 (C). B, D. Representative curves of normalized G-V (conductance-voltage) relationship of KCNQ2/3 currents at control and at increasing concentration of retigabine (B) and SF0034 (D). E. Summary bar graph representing half activation (V1/2) of KCNQ2/3 currents calculated from normalized G-V Boltzmann curves at control and at increasing concentration of retigabine and SF0034. […] Curves were fitted with a hill equation and EC50 values were calculated. Error bars represent mean±SEM. **p<0.01, ***p<0.001.
CHO cells transiently expressing heterologous KCNQ2/3 channels were clamped at −85 mV and KCNQ2/3 currents were measured elicited by 1 s depolarization step from −105 to +15 mV in the increment of 10 mV followed by return step to −70 mV. […] Curves were fitted with a hill equation and EC50 values were calculated. Error bars represent mean±SEM. *p<0.05, **p<0.01.
CHO cells transiently expressing heterologous KCNQ2/3 and homomeric KCNQ4 and KCNQ5 channels were clamped at −85 mV and KCNQ currents were elicited by 1 s depolarization step from −105 to +15 mV in the increment of 10 mV followed by return step to −70 mV. […] Representative current traces of KCNQ2/3 currents at increasing membrane potentials in absence and presence of 100 nM or 1 μM RL648_81. […] Representative curves of normalized G-V relationship of KCNQ2/3 currents at control and at increasing concentration of RL648_81. […] Summary bar graph representing half activation (V1/2) of KCNQ2/3 currents calculated from normalized G-V Boltzmann curves at control and at increasing concentration of RL648_81 A4. […] Curves were fitted with a hill equation and EC50 values were calculated. […] D. Summary bar graphs representing EC50 values of second generation compounds tested at KCNQ2/3 channels in comparison with SF0034.

KCNQ5 channels = target: T2, KCNQ5 channels (Homo sapiens, UniProt Q9NR82); test: KCNQ5 currents, voltage clamp of CHO cells transiently expressing homomeric KCNQ5 channels; format: cell-based; details: 100 nM and 1 μM
T2 construct: expressed in transfected cells; host or cells: CHO cells, transient expression
Description: (§1) FIG. 7. […] CHO cells transiently expressing homomeric KCNQ4 or KCNQ5 channels were clamped at −85 mV and KCNQ currents were measured elicited by 1 s depolarization step from −105 to +15 mV in the increment of 10 mV followed by return step to −70 mV. […] B1-2. […] C1-2. […] E1-2. […] F1-2. […] H1-2. […] I1-2.
(§2) FIG. 9. […] CHO cells transiently expressing heterologous KCNQ2/3 and homomeric KCNQ4 and KCNQ5 channels were clamped at −85 mV and KCNQ currents were elicited by 1 s depolarization step from −105 to +15 mV in the increment of 10 mV followed by return step to −70 mV. A1. […] A2. […] A3. […] Curves were fitted with a hill equation and EC50 values were calculated. B1.

KCNQ4 channels = target: T3, KCNQ4 channels (Homo sapiens, UniProt P56696); test: KCNQ4 currents, voltage clamp of CHO cells transiently expressing homomeric KCNQ4 channels; format: cell-based; details: 100 nM and 1 μM
T3 construct: expressed in transfected cells; host or cells: CHO cells, transient expression
Description: as §1, §2

[1] = hydrochloride salt; cited from earlier work
[2] = CHO cells, 100 nM-30 μM, Hill fit, mean±SEM, read-out: EC50 of half activation shift (ΔV1/2) of KCNQ2/3 currents

T1 sequence (O43526 whole entry): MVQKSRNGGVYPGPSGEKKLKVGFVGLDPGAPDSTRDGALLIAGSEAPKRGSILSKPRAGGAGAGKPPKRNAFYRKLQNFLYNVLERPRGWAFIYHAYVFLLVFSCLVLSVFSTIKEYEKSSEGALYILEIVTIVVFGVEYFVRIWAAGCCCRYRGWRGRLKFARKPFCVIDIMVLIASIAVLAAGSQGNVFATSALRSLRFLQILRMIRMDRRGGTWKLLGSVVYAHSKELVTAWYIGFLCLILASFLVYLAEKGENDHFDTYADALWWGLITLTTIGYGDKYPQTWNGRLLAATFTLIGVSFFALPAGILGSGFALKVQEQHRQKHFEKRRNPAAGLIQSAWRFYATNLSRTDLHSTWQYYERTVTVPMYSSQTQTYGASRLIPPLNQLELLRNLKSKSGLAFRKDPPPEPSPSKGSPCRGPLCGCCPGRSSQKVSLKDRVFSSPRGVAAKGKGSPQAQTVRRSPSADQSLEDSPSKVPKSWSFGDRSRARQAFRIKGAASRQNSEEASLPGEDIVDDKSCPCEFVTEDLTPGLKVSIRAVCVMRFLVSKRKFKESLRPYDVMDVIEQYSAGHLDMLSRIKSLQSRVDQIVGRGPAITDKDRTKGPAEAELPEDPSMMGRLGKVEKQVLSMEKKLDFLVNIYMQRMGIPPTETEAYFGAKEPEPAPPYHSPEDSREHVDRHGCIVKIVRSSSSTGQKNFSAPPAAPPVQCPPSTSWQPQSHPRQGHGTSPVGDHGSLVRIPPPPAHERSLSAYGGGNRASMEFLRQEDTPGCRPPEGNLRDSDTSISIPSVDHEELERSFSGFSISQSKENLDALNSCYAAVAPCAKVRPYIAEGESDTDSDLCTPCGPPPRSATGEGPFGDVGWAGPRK
T1 sequence (O43525 whole entry): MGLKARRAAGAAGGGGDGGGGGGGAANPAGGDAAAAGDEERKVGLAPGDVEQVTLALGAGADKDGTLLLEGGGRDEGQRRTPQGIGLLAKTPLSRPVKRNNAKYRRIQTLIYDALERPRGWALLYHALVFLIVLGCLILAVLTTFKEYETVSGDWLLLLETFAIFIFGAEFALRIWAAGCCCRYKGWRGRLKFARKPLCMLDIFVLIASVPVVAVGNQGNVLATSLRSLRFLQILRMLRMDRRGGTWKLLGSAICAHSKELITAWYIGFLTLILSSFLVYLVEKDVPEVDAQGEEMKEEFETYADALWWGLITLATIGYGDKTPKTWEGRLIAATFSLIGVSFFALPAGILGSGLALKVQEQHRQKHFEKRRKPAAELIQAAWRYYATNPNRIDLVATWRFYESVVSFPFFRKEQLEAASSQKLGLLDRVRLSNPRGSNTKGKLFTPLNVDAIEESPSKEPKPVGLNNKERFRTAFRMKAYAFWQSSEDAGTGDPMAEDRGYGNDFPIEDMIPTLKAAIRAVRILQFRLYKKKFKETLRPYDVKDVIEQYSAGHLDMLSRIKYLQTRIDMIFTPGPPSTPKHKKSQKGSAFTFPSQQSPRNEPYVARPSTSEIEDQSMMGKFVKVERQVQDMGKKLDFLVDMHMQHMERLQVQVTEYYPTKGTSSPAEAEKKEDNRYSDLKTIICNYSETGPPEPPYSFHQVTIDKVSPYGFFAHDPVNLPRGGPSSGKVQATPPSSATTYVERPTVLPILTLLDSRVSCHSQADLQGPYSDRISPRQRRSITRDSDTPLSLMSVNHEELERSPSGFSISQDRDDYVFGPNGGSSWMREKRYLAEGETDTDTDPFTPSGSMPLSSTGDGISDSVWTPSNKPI

Molecule: CC(C)OC(=O)Nc1ccc(NCc2ccc(F)cc2)cc1N [NR561_62, N-(2-Amino-4-{[(4-fluorophenyl)methyl]amino}phenyl)(methylethoxy)carboxamide]
- potency in activating KCNQ2/3 channel currents relative to SF0034 (times lower potency) (KCNQ2/3 channels; CHO cells): 2-3 times
- EC50 (KCNQ2/3 channels; [2]): 1480 ± 180 nM

Molecule: CCOC(=O)Nc1ccc(NCc2ccc(F)cc2)c(F)c1N [SF0034, reference compound]
- shift of half activation (V1/2) of KCNQ2/3 currents from control (KCNQ2/3 channels; 100 nM): significantly shift the V1/2
- potency in activating KCNQ2/3 channel currents relative to retigabine (times more potent) (KCNQ2/3 channels; CHO cells): five-times more potent than retigabine
- EC50 (KCNQ2/3 channels; [2]): 600 ± 60 nM

Molecule: CCOC(=O)Nc1ccc(NCc2ccc(C(F)(F)F)cc2)c(F)c1N [RL648_81, Ethyl (2-amino-3-fluoro-4-((4-(trifluoromethyl)benzyl)amino)phenyl)carbamate]
- activation of KCNQ5 channel currents (KCNQ5 channels): does not potentiate KCNQ4 and KCNQ5 channel currents significantly
- activation of KCNQ4 channel currents (KCNQ4 channels): does not potentiate KCNQ4 and KCNQ5 channel currents significantly
- potency in activating KCNQ2/3 channel currents relative to SF0034 (times more potent) (KCNQ2/3 channels; CHO cells): three times more potent than SF0034
- EC50 (KCNQ2/3 channels; [2]): 190 ± 20 nM

Molecule: CCOC(=O)Nc1ccc(NCc2ccc(F)cc2)cc1N [retigabine, reference compound]
- solubility in aqueous solution [1]: only sparingly soluble
- EC50 (KCNQ2/3 channels): 3300 ± 800 nM

Molecule: CCOC(=O)Nc1ccc(NCc2cccc(C(F)(F)F)c2)cc1N [NR561_50, N-[2-Amino-4-({[3-(trifluoromethyl)phenyl]methyl}amino)phenyl]ethoxycarboxamide]
- activation of KCNQ5 channel currents (KCNQ5 channels): does not activate KCNQ4 and KCNQ5 channel currents significantly
- activation of KCNQ4 channel currents (KCNQ4 channels): does not activate KCNQ4 and KCNQ5 channel currents significantly
- EC50 (KCNQ2/3 channels; [2]): 740 ± 70 nM

Molecule: CCOC(=O)Nc1ccc(NCc2cccc(C(F)(F)F)c2)c(F)c1N [RL648_73, Ethyl (2-amino-3-fluoro-4-((3-(trifluoromethyl)benzyl)amino)phenyl)carbamate]
- potency in activating KCNQ2/3 channel currents relative to SF0034 (times more potent) (KCNQ2/3 channels; CHO cells): 2 times

Molecule: Isopropyl (2-amino-3-fluoro-4-((4-fluorobenzyl)amino)phenyl)carbamate [RL648_86]
- potency in activating KCNQ2/3 channel currents relative to SF0034 (times more potent) (KCNQ2/3 channels; CHO cells): 2 times

Molecule: CCOC(=O)Nc1ccc(NCc2ccc(C(F)(F)F)cc2)cc1N
- EC50 (KCNQ2/3 channels): 910 ± 80 nM
